Data taken from the supplement of paper PMC4649846.

How the values were obtained:
MDA-MB-231 [1] = conditions: incubation time: 72 h
Procedure: (§1)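 MDA-MB-231 breast cancer cells were transfected with siBRCA1 or non-targeting siControl, then seeded 24 h later at 4000 cells/well in 384-well plates holding 198 drugs at 5 concentrations. Viability was read by CellTiter-Blue after 72 h at 37 °C. Dose-response curves were fitted in Dotmatics to give IC50 and a drug sensitivity score (DSS: area under the curve relative to the area between the 10% threshold and 100% inhibition, normalised by the log of the top response). The dose range is not stated. IC50 values of 8333.3 or 4166.7 nM mark no response (top dose), and 0.8333 nM is the lower limit.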

MDA-MB-231 [2] = assay: drug sensitivity score (DSS); higher = more sensitive; extreme values may be limits of the assay; conditions: incubation time: 72 h
Procedure: as §1

[3] = siRNA: siControl (non-targeting)

IC50 of cell viability (MDA-MB-231 [1]; siRNA: siBRCA1)	IC50 of cell viability (MDA-MB-231 [1]; [3])	SMILES	drug sensitivity score (MDA-MB-231 [2]; siRNA: siBRCA1)	drug sensitivity score (MDA-MB-231 [2]; [3])
1850 nM	1860 nM	COc1cc2/c(=N/c3ccc(Br)cc3F)nc[nH]c2cc1OCC1CCN(C)CC1 [Vandetanib]	7.31	7.25
> 4170 nM	> 4170 nM	CC1=C(/C=C/C(C)=C/C=C/C(C)=C/C(=O)O)C(C)(C)CCC1 [Tretinoin]	0.0479	0
2950 nM	3500 nM	CNC(=O)c1cc(Oc2ccc(NC(=O)Nc3ccc(Cl)c(C(F)(F)F)c3)cc2)ccn1 [Sorafenib]	5.25	4.57
2080 nM	2080 nM	c1cc(CN2CCCNCCNCCCNCC2)ccc1CN1CCCNCCNCCCNCC1 [Plerixafor]	0	0
> 4170 nM	> 4170 nM	Cc1cn(-c2cc(NC(=O)c3ccc(C)c(Nc4nccc(-c5cccnc5)n4)c3)cc(C(F)(F)F)c2)cn1 [Nilotinib]	0	0
> 4170 nM	> 4170 nM	C[C@H]1C[C@@H]2[C@H]([C@@H](O)C[C@@]3(C)[C@H]2CC[C@]3(O)C(=O)CO)[C@@]2(C)C=CC(=O)C=C12 [Methylprednisolone]	0	0
> 4170 nM	> 4170 nM	CC1(C)NC(=O)N(c2ccc([N+](=O)[O-])c(C(F)(F)F)c2)C1=O [Nilutamide]	0	0
2040 nM	1130 nM	O=C(CCCCCCC(=O)Nc1ccccc1)NO [Vorinostat]	6.81	9.94
> 4170 nM	> 4170 nM	CNNCc1ccc(C(=O)NC(C)C)cc1 [Procarbazine]	0	0
348 nM	230 nM	C=CCn1c(=O)c2cnc(Nc3ccc(N4CCN(C)CC4)cc3)nc2n1-c1cccc(C(C)(C)O)n1 [MK1775]	13.2	14.3

The remaining lines, values behind:

SMILES	IC50 of cell viability (MDA-MB-231 [1]; siRNA: siBRCA1)	IC50 of cell viability (MDA-MB-231 [1]; [3])	drug sensitivity score (MDA-MB-231 [2]; siRNA: siBRCA1)	drug sensitivity score (MDA-MB-231 [2]; [3])
CC(C)(C)c1cc(NC(=O)Nc2ccc(-c3cn4c(n3)sc3cc(OCCN5CCOCC5)ccc34)cc2)no1 [AC220]	> 4170 nM	> 4170 nM	0	0.0185
COc1ccc(-c2cc3c(C)nc(N)nc3n([C@H]3CC[C@H](OCCO)CC3)c2=O)cn1	125 nM	129 nM	18.9	18.6
Cn1cc(C2=C(c3cn(C4CCN(Cc5ccccn5)CC4)c4ccccc34)C(=O)NC2=O)c2ccccc21 [Enzastaurin]	> 4170 nM	> 4170 nM	0	0
Nc1nc(Cl)nc2c1ncn2[C@H]1C[C@H](O)[C@@H](CO)O1 [Cladribine]	2880 nM	91.8 nM	5.2	9.09
CN(C)C[C@@H]1CCn2cc(c3ccccc32)C2=C(C(=O)NC2=O)c2cn(c3ccccc23)CCO1	2720 nM	3770 nM	5.43	4.41
Cc1ccc(-n2nc(C(C)(C)C)cc2NC(=O)Nc2ccc(OCCN3CCOCC3)c3ccccc23)cc1 [Doramapimod]	> 4170 nM	> 4170 nM	0	0
CCNC(=O)CCC/C=C\C[C@@H]1[C@@H](/C=C/[C@@H](O)CCc2ccccc2)[C@H](O)C[C@@H]1O [Bimatoprost]	> 4170 nM	> 4170 nM	0	0
O=C(Nc1c[nH]nc1-c1nc2ccc(CN3CCOCC3)cc2[nH]1)NC1CC1 [AT9283]	267 nM	173 nM	16.5	18.6
Nc1ccccc1NC(=O)c1ccc(CNC(=O)OCc2cccnc2)cc1 [Entinostat]	> 4170 nM	> 4170 nM	0	2.12
Nc1ccn([C@@H]2O[C@H](CO)[C@@H](O)C2(F)F)c(=O)n1 [Gemcitabine]	2490 nM	78.7 nM	7.87	12.8
